Measurements taken from the NIST ThermoML archive (doi:10.1021/je9010568).
± gives the expanded uncertainty stated by the source.

Tests used:
[1] = Liquid
[2] = φn = volume fraction of the nth substance listed; conditions: Liquid, φ1 = 0.55

CC(O)CO (centres undefined) [1,2-propanediol]
[1]
Conditions	specific volume [m3/kg]
273.15 K, 100 kPa, Vibrating tube method	0.0009519 ± 2.4e-07
274.15 K, 100 kPa, Vibrating tube method	0.0009525 ± 2.4e-07
275.15 K, 100 kPa, Vibrating tube method	0.0009532 ± 2.4e-07
276.15 K, 100 kPa, Vibrating tube method	0.0009538 ± 2.4e-07
277.15 K, 100 kPa, Vibrating tube method	0.0009544 ± 2.4e-07
278.15 K, 100 kPa, Vibrating tube method	0.0009551 ± 2.4e-07
279.15 K, 100 kPa, Vibrating tube method	0.0009557 ± 2.4e-07
280.15 K, 100 kPa, Vibrating tube method	0.0009563 ± 2.4e-07
281.15 K, 100 kPa, Vibrating tube method	0.000957 ± 2.4e-07
282.16 K, 100 kPa, Vibrating tube method	0.0009576 ± 2.4e-07
283.16 K, 100 kPa, Vibrating tube method	0.0009583 ± 2.4e-07
284.16 K, 100 kPa, Vibrating tube method	0.0009589 ± 2.4e-07
285.16 K, 100 kPa, Vibrating tube method	0.0009596 ± 2.4e-07
286.16 K, 100 kPa, Vibrating tube method	0.0009602 ± 2.4e-07
287.16 K, 100 kPa, Vibrating tube method	0.0009609 ± 2.4e-07
287.78 K, 298200 kPa, Bellows volumetry	0.0008796 ± 1.4e-06
287.98 K, 348900 kPa, Bellows volumetry	0.0008706 ± 1.8e-06
288.05 K, 100 kPa, Vibrating tube method	0.0009615 ± 2.4e-07
288.05 K, 49200 kPa, Bellows volumetry	0.0009434 ± 4.3e-07
288.1 K, 299700 kPa, Bellows volumetry	0.0008829 ± 1.3e-06
288.11 K, 148700 kPa, Bellows volumetry	0.0009148 ± 1.1e-06
288.12 K, 198400 kPa, Bellows volumetry	0.0009035 ± 1.4e-06
288.12 K, 248700 kPa, Bellows volumetry	0.0008932 ± 2.3e-06
288.14 K, 99900 kPa, Bellows volumetry	0.0009277 ± 8.3e-06
288.15 K, 99300 kPa, Bellows volumetry	0.000926 ± 3.8e-06
288.16 K, 100 kPa, Vibrating tube method	0.0009616 ± 2.4e-07
288.17 K, 49000 kPa, Bellows volumetry	0.0009425 ± 2.7e-07
288.17 K, 349200 kPa, Bellows volumetry	0.0008746 ± 1.3e-06
288.2 K, 249300 kPa, Bellows volumetry	0.0008891 ± 7.1e-07
288.21 K, 148200 kPa, Bellows volumetry	0.0009125 ± 4.4e-07
288.22 K, 99800 kPa, Bellows volumetry	0.0009279 ± 1.3e-06
288.24 K, 199500 kPa, Bellows volumetry	0.0009 ± 5.9e-07
288.28 K, 149900 kPa, Bellows volumetry	0.0009146 ± 1.6e-06
288.29 K, 250100 kPa, Bellows volumetry	0.0008927 ± 2e-06
288.31 K, 100 kPa, Vibrating tube method	0.0009617 ± 2.4e-07
288.31 K, 199600 kPa, Bellows volumetry	0.0009031 ± 2e-06
288.31 K, 299900 kPa, Bellows volumetry	0.0008834 ± 9.9e-07
288.32 K, 349100 kPa, Bellows volumetry	0.000875 ± 1.3e-06
288.34 K, 100 kPa, Vibrating tube method	0.0009617 ± 2.4e-07
288.38 K, 48800 kPa, Bellows volumetry	0.0009437 ± 3.6e-07
289.16 K, 100 kPa, Vibrating tube method	0.0009622 ± 2.4e-07
290.15 K, 100 kPa, Vibrating tube method	0.0009629 ± 2.4e-07
291.15 K, 100 kPa, Vibrating tube method	0.0009636 ± 2.4e-07
292.15 K, 100 kPa, Vibrating tube method	0.0009643 ± 2.4e-07
293.15 K, 100 kPa, Vibrating tube method	0.0009649 ± 2.4e-07
294.15 K, 100 kPa, Vibrating tube method	0.0009656 ± 2.4e-07
295.15 K, 100 kPa, Vibrating tube method	0.0009663 ± 2.4e-07
296.16 K, 100 kPa, Vibrating tube method	0.000967 ± 2.4e-07
297.16 K, 100 kPa, Vibrating tube method	0.0009677 ± 2.4e-07
298.16 K, 100 kPa, Vibrating tube method	0.0009684 ± 2.4e-07
299.16 K, 100 kPa, Vibrating tube method	0.0009691 ± 2.4e-07
300.16 K, 100 kPa, Vibrating tube method	0.0009698 ± 2.4e-07
301.16 K, 100 kPa, Vibrating tube method	0.0009705 ± 2.4e-07
302.16 K, 100 kPa, Vibrating tube method	0.0009712 ± 2.4e-07
303.16 K, 100 kPa, Vibrating tube method	0.0009719 ± 2.4e-07
304.15 K, 100 kPa, Vibrating tube method	0.0009726 ± 2.4e-07
305.15 K, 100 kPa, Vibrating tube method	0.0009733 ± 2.4e-07
306.15 K, 100 kPa, Vibrating tube method	0.000974 ± 2.4e-07
307.15 K, 100 kPa, Vibrating tube method	0.0009747 ± 2.4e-07
308.15 K, 100 kPa, Vibrating tube method	0.0009754 ± 2.4e-07
309.15 K, 100 kPa, Vibrating tube method	0.0009761 ± 2.4e-07
310.15 K, 100 kPa, Vibrating tube method	0.0009769 ± 2.4e-07
311.15 K, 100 kPa, Vibrating tube method	0.0009776 ± 2.4e-07
312.15 K, 100 kPa, Vibrating tube method	0.0009783 ± 2.4e-07
313.15 K, 100 kPa, Vibrating tube method	0.000979 ± 2.4e-07

CC(O)CO (centres undefined) [1,2-propanediol] + O
[2]
Conditions	specific volume [m3/kg]
273.15 K, 100 kPa, Vibrating tube method	0.0009499 ± 2.3e-07
274.15 K, 100 kPa, Vibrating tube method	0.0009505 ± 2.3e-07
275.15 K, 100 kPa, Vibrating tube method	0.000951 ± 2.3e-07
276.15 K, 100 kPa, Vibrating tube method	0.0009516 ± 2.3e-07
277.15 K, 100 kPa, Vibrating tube method	0.0009521 ± 2.3e-07
278.15 K, 100 kPa, Vibrating tube method	0.0009527 ± 2.3e-07
279.15 K, 100 kPa, Vibrating tube method	0.0009533 ± 2.3e-07
280.15 K, 100 kPa, Vibrating tube method	0.0009539 ± 2.3e-07
281.15 K, 100 kPa, Vibrating tube method	0.0009544 ± 2.3e-07
282.15 K, 100 kPa, Vibrating tube method	0.000955 ± 2.3e-07
283.15 K, 100 kPa, Vibrating tube method	0.0009556 ± 2.3e-07
284.15 K, 100 kPa, Vibrating tube method	0.0009562 ± 2.3e-07
285.16 K, 100 kPa, Vibrating tube method	0.0009568 ± 2.3e-07
286.16 K, 100 kPa, Vibrating tube method	0.0009574 ± 2.3e-07
287.16 K, 100 kPa, Vibrating tube method	0.0009579 ± 2.3e-07
287.99 K, 198800 kPa, Bellows volumetry	0.0009078 ± 2.6e-07
288 K, 100100 kPa, Bellows volumetry	0.0009305 ± 2.7e-07
288.03 K, 49500 kPa, Bellows volumetry	0.0009439 ± 2.7e-07
288.04 K, 148900 kPa, Bellows volumetry	0.0009188 ± 2.6e-07
288.11 K, 248600 kPa, Bellows volumetry	0.0008977 ± 2.6e-07
288.11 K, 298400 kPa, Bellows volumetry	0.0008885 ± 2.6e-07
288.12 K, 49600 kPa, Bellows volumetry	0.0009432 ± 2.7e-07
288.12 K, 198700 kPa, Bellows volumetry	0.000907 ± 2.6e-07
288.12 K, 348400 kPa, Bellows volumetry	0.0008794 ± 2.6e-07
288.13 K, 100 kPa, Vibrating tube method	0.0009585 ± 2.3e-07
288.13 K, 98100 kPa, Bellows volumetry	0.0009301 ± 2.7e-07
288.13 K, 148600 kPa, Bellows volumetry	0.0009182 ± 2.6e-07
288.16 K, 100 kPa, Vibrating tube method	0.0009585 ± 2.3e-07
288.22 K, 249300 kPa, Bellows volumetry	0.000897 ± 2.6e-07
288.3 K, 100900 kPa, Bellows volumetry	0.0009295 ± 2.7e-07
288.31 K, 149300 kPa, Bellows volumetry	0.0009178 ± 2.6e-07
288.31 K, 201100 kPa, Bellows volumetry	0.0009066 ± 2.6e-07
288.31 K, 300500 kPa, Bellows volumetry	0.0008875 ± 2.6e-07
288.31 K, 348700 kPa, Bellows volumetry	0.0008793 ± 2.6e-07
288.32 K, 100 kPa, Vibrating tube method	0.0009586 ± 2.3e-07
288.33 K, 49800 kPa, Bellows volumetry	0.0009434 ± 2.7e-07
288.33 K, 249400 kPa, Bellows volumetry	0.0008969 ± 2.6e-07
288.35 K, 350000 kPa, Bellows volumetry	0.0008796 ± 2.6e-07
288.36 K, 299200 kPa, Bellows volumetry	0.0008882 ± 2.6e-07
289.16 K, 100 kPa, Vibrating tube method	0.0009591 ± 2.3e-07
290.16 K, 100 kPa, Vibrating tube method	0.0009597 ± 2.3e-07
291.15 K, 100 kPa, Vibrating tube method	0.0009603 ± 2.3e-07
292.15 K, 100 kPa, Vibrating tube method	0.000961 ± 2.3e-07
293.15 K, 100 kPa, Vibrating tube method	0.0009616 ± 2.3e-07
294.15 K, 100 kPa, Vibrating tube method	0.0009622 ± 2.3e-07
295.15 K, 100 kPa, Vibrating tube method	0.0009628 ± 2.3e-07
296.16 K, 100 kPa, Vibrating tube method	0.0009634 ± 2.3e-07
297.16 K, 100 kPa, Vibrating tube method	0.0009641 ± 2.3e-07
298.16 K, 100 kPa, Vibrating tube method	0.0009647 ± 2.3e-07
299.16 K, 100 kPa, Vibrating tube method	0.0009653 ± 2.3e-07
300.16 K, 100 kPa, Vibrating tube method	0.000966 ± 2.3e-07
301.16 K, 100 kPa, Vibrating tube method	0.0009666 ± 2.3e-07
302.16 K, 100 kPa, Vibrating tube method	0.0009673 ± 2.3e-07
303.16 K, 100 kPa, Vibrating tube method	0.0009679 ± 2.3e-07
304.16 K, 100 kPa, Vibrating tube method	0.0009685 ± 2.3e-07
305.16 K, 100 kPa, Vibrating tube method	0.0009692 ± 2.3e-07
306.16 K, 100 kPa, Vibrating tube method	0.0009699 ± 2.3e-07
307.15 K, 100 kPa, Vibrating tube method	0.0009705 ± 2.3e-07
308.15 K, 100 kPa, Vibrating tube method	0.0009712 ± 2.3e-07
309.15 K, 100 kPa, Vibrating tube method	0.0009719 ± 2.3e-07
310.15 K, 100 kPa, Vibrating tube method	0.0009725 ± 2.3e-07
311.15 K, 100 kPa, Vibrating tube method	0.0009732 ± 2.3e-07
312.15 K, 100 kPa, Vibrating tube method	0.0009739 ± 2.3e-07
313.15 K, 100 kPa, Vibrating tube method	0.0009746 ± 2.3e-07
